Measured values: PubChem BioAssay AID179 (DTP/NCI, 2004)
Several values for one entry are separate records, joined by “and”; a condition that tells them apart may be missing. Equal entries are not always repeated. Activity calls are given as the source filed them.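 How the source made its calls: active means compounds giving half or more protection of infected cells from virus-caused growth loss, again on retest; inactive means the rest.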 Where a SMILES comes first, the peptide text is derived from it.

Tested on: CEM cells HIV-1 protection, formazan growth assay
Assay: NCI AIDS Antiviral Assay
Details: for IC50: measured here: growth of uninfected CEM cells
Procedure, shortened: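 Steps: treat uninfected and HIV-1-infected human CEM cells at five drug levels; quantify growth by soluble formazan; retest any compound reaching 50% protection; classify actives from the retest.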

Row | Structure (SMILES) | EC50 [µM] | IC50 | outcome
1 | O=C(O)C1OC12CCCCC2 (centres undefined) | > 200 | > 200 µM | –
2 | CC1=C(C(=O)CC(=O)C(=O)Nc2ccc(C)c(C)c2)Sc2ccccc2N1 | > 6.92 | > 6.92 µM | –
3 | O=C1O[C@@H](c2ccccc2)C[C@@H]1CN1CCOCC1 | – | – | inactive
4 | CCOC(=O)C(Cl)(NC(=O)c1ccc(F)cc1)C(F)(F)F (centres undefined) | > 200 | > 200 µM | –
5 | CC1=Nc2ccc([N+](=O)[O-])cc2N=C(C)C1 | > 200 | > 200 µM and 126 µM | –
6 | O=C1c2ccccc2C(=O)C2C3c4ccccc4C(c4ccccc43)C12 (centres undefined) | > 15.5 | > 15.5 µM | –
7 | COc1ccccc1-c1csc(CCC(N)C(=O)O)n1 (centres undefined) | – | – | inactive
8 | O=C(OCc1ccccc1)N1CCNCCN(C(=O)OCc2ccccc2)CCNCC1 | > 200 | 87.1 µM | –
9 | C/C(=N\N=C(N)N)C(CN(CC(C)C)CC(C)C)C(=O)Nc1ccc(C)cc1C (centres undefined) | > 17.8 | > 17.8 µM | –
10 | O=C1Nc2ccccc2NC1C1OC(c2ccccc2)=CC1=O (centres undefined) | > 200 | 97.7 µM | –
11 | Cc1ccc(S(=O)(=O)C2=Cc3ccccc3C2(O)c2ccccc2)cc1 (centres undefined) | > 200 | 21.4 µM | –
12 | Fc1ccccc1C1SCc2nc3cc4ccccc4cc3n21 (centres undefined) | > 200 | 75.9 µM | –
13 | COC(=O)C(C)S(=O)(=O)O (centres undefined) | > 200 | > 200 µM | –
14 | Cc1cc(-c2cccs2)oc(=O)c1NC(=O)c1cnccn1 | > 200 | > 200 µM | –
15 | Nn1c(=S)[nH]c2ccccc2c1=O | > 200 | > 200 µM | –
16 | Cc1ccc(S(=O)(=O)NC(=O)NCCc2ccccc2)cc1 | 7.08 | 295 µM | –
17 | C=CCCN(C=O)CCC/C(=C/CCCC)[Si](C)(C)C | > 24.5 | > 24.5 µM | –
18 | NC(CSS(=O)(=O)O)=NCCCc1ccccc1 | > 200 | 110 µM | –
19 | COC(=O)C1=NC(=S)N=C(C(=O)OC)C12Cc1ccccc1C2=O | > 724 | 214 µM | –
20 | CN(C)CC1CC(=O)C(CN(C)C)CC1=O (centres undefined) | > 832 | 2.51 µM | –
21 | COCCCNC(=O)CC(=O)NCCCOC | > 1000 | > 1000 µM | –
22 | COC(=O)C1CCN(C(=O)OC(C)(C)C)CC1 | > 200 | > 200 µM | –

Row | Structure (SMILES) | EC50 [µM] | IC50 | outcome
23 | Cc1ccccc1C=C1C(=O)NC(=O)NC1=O | > 407 | > 407 µM | –
24 | CN(CCCNC(=O)c1cc(-c2ccccc2)nc2ccccc12)CCCNC(=O)c1cc(-c2ccccc2)nc2ccccc12 | > 20 | 3.39 µM | –
25 | C1CC2=C(C1)C1=S(S2)SC2=C1CCC2 | – | – | inactive
26 | O=c1c2ccccc2c(=O)c2c1cc(Cl)c1[nH]c3c([nH]c12)c(Cl)cc1c(=O)c2ccccc2c(=O)c13 | > 7.41 | > 7.41 µM | –
27 | O=C1c2sccc2-c2cccc3cccc1c23 | > 63.1 | 30.9 µM | –
28 | CNC1(C#N)CCN(Cc2ccccc2)CC1 | > 200 | > 200 µM | –
29 | NC(N)=NC(CSSCC(N=C(N)N)C(=O)O)C(=O)O (centres undefined) | > 200 | > 200 µM | –
30 | O=c1c2c3c(sc2nc2n1N=CN(c1ccc(F)cc1)C2)CCCC3 | > 200 | > 200 µM | –
31 | O=S1OCCO1 | > 2290 | > 2290 µM | –
32 | O=C(O)CCC(NC(=O)c1ccc(Nc2cnc3ccc(C(F)(F)F)cc3n2)cc1)C(=O)O (centres undefined) | > 200 | > 200 µM | –
33 | Cc1c2ccccc2c(CSCCC(N)C(=O)O)c2ccccc12 (centres undefined) | > 200 | > 200 µM | –
34 | O=C(O/N=C1/CCCC/C1=C\c1ccccc1)c1ccc(Cl)cc1 | – | – | inactive
35 | CC1=C2C(=O)[C@H]3[C@@H](CC=C4C[C@@H](O)CC[C@@]43C)[C@@H]2CC[C@]12O[C@@H]1C[C@H](C)CN[C@H]1[C@H]2C | > 200 | > 2.45 µM and 102 µM | –
36 | O=c1c([Se]c2coc3ccccc3c2=O)coc2ccccc12 | > 10.2 | > 10.2 µM | –
37 | Cc1cc(=O)n2nc(CSc3nnc(Sc4cc(O)ccc4O)s3)sc2n1 | > 200 | 28.8 µM | –
38 | COc1cc2cc(OC)c3cc4c(cc3c2c(OC)c1OC)OCO4 | > 39.8 | > 39.8 µM | –
39 | CC1=C(C(=O)NCCc2ccccc2)CC(C(=O)NCCc2ccccc2)=C(C)N1 | > 200 | 123 µM | –
40 | Cc1ccc(N2C(=O)C3C=CC(n4[nH]c(=O)n(Cc5ccccc5)c4=O)CC3C2=O)cc1 (centres undefined) | > 417 | > 417 µM | –
41 | Cc1cccc(C2=NC(C)(C)C(C)(C)N=C2c2cccc(C)n2)n1 | > 81.3 | > 81.3 µM | –
42 | CCOC(=O)C(=CNC(=S)Nc1ccc(Cl)c(Cl)c1)C(=O)OCC | > 200 | 34.7 µM | –
43 | O=C1C(=Cc2ccccc2O)N=C(c2ccccc2)N1n1c(-c2ccccc2)nc2ccccc2c1=O | > 200 | 10.2 µM | –
44 | Cc1cn(C2CC(Br)C(COC(c3ccccc3)(c3ccccc3)c3ccccc3)O2)c(=O)[nH]c1=O (centres undefined) | > 200 | 13.8 µM | –

Row | Structure (SMILES) | EC50 [µM] | IC50 | outcome
45 | Nc1nc(Cl)c(C=O)c(NCC2(CO)CCC2)n1 | > 200 | 2.88 µM | –
46 | CCN(CC)C(=S)SCCCS(=O)(=O)O | – | – | inactive
47 | Cc1nc2ccccc2nc1CC(=O)C(=O)Nc1ccc(Cl)cc1Cl | 302 | 347 µM | –
48 | O=c1[nH]c(=O)n(C2OC(CO)C(O)C2O)c2nc(-c3ccc(-c4ccccc4)cc3)cnc12 (centres undefined) | > 200 | > 200 µM | –
49 | Clc1cc2nc(C3CCCO3)[nH]c2cc1Cl (centres undefined) | > 200 | 66.1 µM | –
50 | CCOC(=O)c1cc(C2CCN(c3ccccc3)C2=O)c(/C(O)=C/C(C)=O)[nH]1 (centres undefined) | > 200 | 5.01 µM | –
51 | CCC(C)C(NC(=O)C(CC(C)C)NC(=O)CNC(=O)C(CC(N)=O)NC(=O)C(CC(=O)O)NC(=O)C(N)CC(C)C)C(=O)NC(CC(C)C)C(=O)NC(C)C(=O)NC(Cc1ccc(O)cc1)C(=O)O (centres undefined) (H-LDNGLILAY-OH; configuration not given here) | > 50.1 | > 50.1 µM | –
52 | N#C/C(=C/c1cccnc1)C(=O)c1ccccc1 | > 398 | 67.6 µM | –
53 | Cc1nc2c(c(=O)[nH]1)S/C(=C(/C#N)c1nc3ccccc3[nH]1)N2c1ccccc1 | > 3.63 | > 3.63 µM | –
54 | Cc1c2ccc(Cl)cc2nc2ccc(OCCCCCCNC(=O)[C@@H](N)CCCN=C(N)N)cc12 | > 100 | 15.5 µM | –
55 | O=C(O)CCCCCCCCCCOc1ccc(I)cc1 | > 200 | 28.2 µM | –
56 | CC1NCc2c1[nH]cnc2=S (centres undefined) | > 257 | > 257 µM | –
57 | CCN(CC)CCC(=O)Nc1ccc2c(c1)C(=O)c1ccc(NC(=O)CCN(CC)CC)cc1C2=O | > 200 | 3.39 µM | –
58 | O=C1C=C(N2CCOCC2)c2cc(N3CCOCC3)ncc2C1=O | – | – | inactive
59 | CCN1CCCc2cc3c(C(F)(F)F)cc(=O)oc3cc21 | > 17.4 | > 17.4 µM | –
60 | O=P1(O)c2ccccc2CCc2ccccc21 | > 200 | > 200 µM | –
61 | CC1C(=O)CC(c2cccs2)N(N=O)C1c1cccs1 (centres undefined) | > 117 | 77.6 µM | –
62 | CC1CCCC(C(O)CC2CC(=O)N(c3ccccc3)C(=O)C2)C1=O (centres undefined) | > 200 | > 200 µM | –
63 | CCC(C)c1c(NS(=O)(=O)c2ccc(C)cc2)o[nH]c1=O (centres undefined) | > 200 | > 200 µM | –
64 | Nc1nc(Cl)c2ncn(C3CC=C(CO)CC3)c2n1 (centres undefined) | > 891 | 51.3 µM | –
65 | COc1ccc(N2C(=O)C3c4[nH]c5ccc(F)cc5c4C4CCC(c5ccccc5)CC4C3C2=O)cc1 (centres undefined) | > 200 | 36.3 µM | –
